Experimental data from PubChem BioAssay AID1845210 (Molecular Pharmacology Branch, DTP, NCI, 2023).

System: NCI-H226 complex tumor spheroids, viability
Assay: Anticancer human tumor NCI-H226 cell line growth inhibition;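 also: spheroids exposed to compound for 7 days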;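 as to viability, T/C: 100% = DMSO vehicle control viability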
Conditions: for IC50: curve of first compound; for viability, T/C: stronger effect = lower value
In short: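 Complex spheroids of malignant cells with endothelial cells and mesenchymal stem cells; agents alone or combined, from near clinical Cmax (or 10 microM if unknown) down in half-log steps, 0.25% DMSO final.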

[1] = second compound 30 pM, first compound 0.0316 µM
[2] = second compound 30 pM, first compound 0.1 µM
[3] = second compound 30 pM, first compound 0.316 µM
[4] = second compound 30 pM, first compound 1 µM
[5] = second compound 30 pM, first compound 3.16 µM
[6] = second compound 30 pM, first compound 10 µM
[7] = second compound 94.9 pM, first compound 0.0316 µM
[8] = second compound 94.9 pM, first compound 0.1 µM
[9] = second compound 94.9 pM, first compound 0.316 µM
[10] = second compound 94.9 pM, first compound 1 µM
[11] = second compound 94.9 pM, first compound 3.16 µM
[12] = second compound 94.9 pM, first compound 10 µM
[13] = second compound 0.0003 µM, first compound 0.0316 µM
[14] = second compound 0.0003 µM, first compound 0.1 µM
[15] = second compound 0.0003 µM, first compound 0.316 µM
[16] = second compound 0.0003 µM, first compound 1 µM
[17] = second compound 0.0003 µM, first compound 3.16 µM
[18] = second compound 0.0003 µM, first compound 10 µM
[19] = second compound 0.000949 µM, first compound 0.0316 µM
[20] = second compound 0.000949 µM, first compound 0.1 µM
[21] = second compound 0.000949 µM, first compound 0.316 µM
[22] = second compound 0.000949 µM, first compound 1 µM
[23] = second compound 0.000949 µM, first compound 3.16 µM
[24] = second compound 0.000949 µM, first compound 10 µM
[25] = second compound 0.003 µM, first compound 0.0316 µM
[26] = second compound 0.003 µM, first compound 0.1 µM
[27] = second compound 0.003 µM, first compound 0.316 µM
[28] = second compound 0.003 µM, first compound 1 µM
[29] = second compound 0.003 µM, first compound 3.16 µM
[30] = second compound 0.003 µM, first compound 10 µM

SMILES	IC50 (second compound 30 pM) [µM]	IC50 (second compound 94.9 pM) [µM]	IC50 (second compound 0.0003 µM) [µM]	IC50 (second compound 0.000949 µM) [µM]	IC50 (second compound 0.003 µM) [µM]	viability, T/C [1] [%]	viability, T/C [2] [%]	viability, T/C [3] [%]	viability, T/C [4] [%]	viability, T/C [5] [%]	viability, T/C [6] [%]	viability, T/C [7] [%]	viability, T/C [8] [%]	viability, T/C [9] [%]	viability, T/C [10] [%]	viability, T/C [11] [%]	viability, T/C [12] [%]	viability, T/C [13] [%]	viability, T/C [14] [%]	viability, T/C [15] [%]	also measured
CC(C)n1c(=O)n(C)c2cnc3cc(F)c(-c4ccc(OCCCN5CCCCC5)nc4)cc3c21 + COc1cc2c(cc1O)CCNC21CSC2c3c(OC(C)=O)c(C)c4c(c3C(COC1=O)N1C(O)C3Cc5cc(C)c(OC)c(O)c5C(C21)N3C)OCO4	9.84	6.75	6.99	6.76	< 0.0316	110	102	121	110	91	49.4	108	102	112	103	90.4	29.2	107	125	122	viability, T/C [16]: 102%; viability, T/C [17]: 102%; viability, T/C [18]: 27.4%; viability, T/C [19]: 98.2%; viability, T/C [20]: 103%; viability, T/C [21]: 104%; viability, T/C [22]: 120%; viability, T/C [23]: 97.4%; viability, T/C [24]: 25.4%; viability, T/C [25]: 1.2%; viability, T/C [26]: 2.1%; viability, T/C [27]: 1.2%; viability, T/C [28]: 3.57%; viability, T/C [29]: 1.96%; viability, T/C [30]: 1%
COc1ccc([C@@H](O)c2cc(-c3ncnc4cc(N5CCOCC5)ccc34)c(F)cc2Cl)nn1 + COc1cc2c(cc1O)CCNC21CSC2c3c(OC(C)=O)c(C)c4c(c3C(COC1=O)N1C(O)C3Cc5cc(C)c(OC)c(O)c5C(C21)N3C)OCO4	6.37	4.02	4.26	0.756	< 0.0316	115	108	81.2	80.5	58	43.6	99.8	105	106	76.5	54.6	43.5	126	130	122	viability, T/C [16]: 95.4%; viability, T/C [17]: 54.7%; viability, T/C [18]: 37.5%; viability, T/C [19]: 107%; viability, T/C [20]: 112%; viability, T/C [21]: 93.6%; viability, T/C [22]: 36.4%; viability, T/C [23]: 0.51%; viability, T/C [24]: 0.24%; viability, T/C [25]: 1.01%; viability, T/C [26]: 0.79%; viability, T/C [27]: 0.98%; viability, T/C [28]: 0.69%; viability, T/C [29]: 0.74%; viability, T/C [30]: 1.08%
